The source made the active and inactive calls. The calls are words filed in the database; no cut-off is given here.
Tests used:
Relaxin receptor 1 [1] = biological target: T1, Relaxin receptor 1 (Homo sapiens, UniProt Q9HBX9); experiment: (§1) Agonist activity at human RXFP1 expressed in T-Rex-CHO-K1 cells assessed as stimulation of cAMP production incubated for 45 mins by HTRF assay; type: functional, cell-based
T1 sequence (Q9HBX9 whole entry): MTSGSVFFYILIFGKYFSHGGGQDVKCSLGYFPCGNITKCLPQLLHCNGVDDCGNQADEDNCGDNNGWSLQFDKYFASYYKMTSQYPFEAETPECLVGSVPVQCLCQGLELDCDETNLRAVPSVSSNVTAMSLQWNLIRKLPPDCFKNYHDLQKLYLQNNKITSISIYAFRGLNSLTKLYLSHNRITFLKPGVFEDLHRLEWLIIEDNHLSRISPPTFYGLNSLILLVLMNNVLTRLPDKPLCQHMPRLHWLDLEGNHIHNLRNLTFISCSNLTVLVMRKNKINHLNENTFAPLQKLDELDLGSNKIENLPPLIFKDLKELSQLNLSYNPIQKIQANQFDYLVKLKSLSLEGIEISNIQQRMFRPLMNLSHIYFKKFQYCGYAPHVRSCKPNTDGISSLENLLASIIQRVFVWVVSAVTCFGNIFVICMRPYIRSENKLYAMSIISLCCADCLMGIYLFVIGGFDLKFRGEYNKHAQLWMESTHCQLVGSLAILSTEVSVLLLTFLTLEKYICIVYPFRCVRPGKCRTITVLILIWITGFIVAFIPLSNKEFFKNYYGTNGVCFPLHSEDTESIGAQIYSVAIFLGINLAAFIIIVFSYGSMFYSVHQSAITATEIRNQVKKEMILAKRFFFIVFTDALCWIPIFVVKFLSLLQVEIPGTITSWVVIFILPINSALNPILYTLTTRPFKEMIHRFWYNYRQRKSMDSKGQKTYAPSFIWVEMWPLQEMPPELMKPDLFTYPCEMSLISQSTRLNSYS

[2] = biological target: T2, Relaxin receptor 1 (Homo sapiens) (UniProt Q9HBX9); experiment: Agonist activity at human RXFP1 expressed in T-Rex-CHO-K1 cells assessed as stimulation of cAMP production by measuring maximal efficacy at 50 uM incubated for 45 mins by HTRF assay relative to control; type: functional, cell-based; conditions: filed as agonist
T2 sequence (whole entry): T1 sequence (Q9HBX9 whole entry)

[3] = Lipophilicity, logD of the compound in 1-octanol and phosphate buffer at pH 7.4 incubated for 3 hrs by shake flask method based LC/MS/MS analysis; type: physicochemical; conditions: 1-octanol/phosphate buffer, pH 7.4
[4] = Metabolic stability in cryopreserved human hepatocytes assessed as intrinsic clearance measured per 10^6 cells at 1 uM after 120 mins by LC-MS/MS analysis; type: ADME, cell-based, Hepatocyte; conditions: cryopreserved hepatocytes, read-out: CLH
[5] = Metabolic stability in cryopreserved human hepatocytes assessed as unbound intrinsic clearance measured per 10^6 cells at 1 uM measured after 120 mins by LC-MS/MS analysis; type: ADME, cell-based, Hepatocyte; conditions: 2 h
Relaxin receptor 1 [6] = biological target: T3, Relaxin receptor 1 (Rattus norvegicus, UniProt Q6R6I6); experiment: Agonist activity at rat RXFP1 expressed in T-Rex-CHO-K1 cells assessed as stimulation of cAMP production incubated for 60 mins by HTRF assay; type: functional, cell-based
T3 sequence (Q6R6I6 whole entry): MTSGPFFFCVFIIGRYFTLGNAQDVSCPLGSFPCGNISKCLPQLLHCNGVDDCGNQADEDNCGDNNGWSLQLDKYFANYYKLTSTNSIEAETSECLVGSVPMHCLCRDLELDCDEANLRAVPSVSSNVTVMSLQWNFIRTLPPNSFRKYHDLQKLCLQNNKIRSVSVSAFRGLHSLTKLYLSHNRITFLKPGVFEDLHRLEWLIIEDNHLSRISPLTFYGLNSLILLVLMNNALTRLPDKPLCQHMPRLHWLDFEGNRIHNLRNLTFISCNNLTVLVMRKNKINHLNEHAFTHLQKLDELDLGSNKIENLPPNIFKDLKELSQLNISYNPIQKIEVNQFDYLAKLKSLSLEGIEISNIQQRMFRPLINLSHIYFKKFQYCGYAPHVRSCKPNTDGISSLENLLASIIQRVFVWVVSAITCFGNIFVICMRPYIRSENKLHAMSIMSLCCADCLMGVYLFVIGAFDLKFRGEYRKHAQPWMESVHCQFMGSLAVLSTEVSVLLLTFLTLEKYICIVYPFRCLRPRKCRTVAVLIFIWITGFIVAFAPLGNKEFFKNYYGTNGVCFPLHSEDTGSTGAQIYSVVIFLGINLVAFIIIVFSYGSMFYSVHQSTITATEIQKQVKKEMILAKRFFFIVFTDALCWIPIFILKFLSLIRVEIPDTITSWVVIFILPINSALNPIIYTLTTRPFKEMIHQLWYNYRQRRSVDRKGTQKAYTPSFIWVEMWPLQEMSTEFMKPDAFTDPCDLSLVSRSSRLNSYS

[7] = biological target: T4, Relaxin receptor 1 (Rattus norvegicus) (UniProt Q6R6I6); experiment: Agonist activity at rat RXFP1 expressed in T-Rex-CHO-K1 cells assessed as stimulation of cAMP production by measuring maximal efficacy incubated for 60 mins by HTRF assay relative to control; type: functional, cell-based; conditions: filed as agonist
T4 sequence (whole entry): T3 sequence (Q6R6I6 whole entry)

[8] = Protein binding in rat plasma assessed as free fraction at 5 uM incubated for 18 hrs by equilibrium dialysis based LC-MS/MS analysis; type: ADME, cell-free
[9] = Metabolic stability in Han Wistar rat hepatocytes assessed as intrinsic clearance measured per 10^6 cells at 1 uM after 120 mins by LC-MS/MS analysis; type: ADME, cell-based, Hepatocyte; conditions: read-out: CLH
[10] = Metabolic stability in Han Wistar rat hepatocytes assessed as unbound intrinsic clearance measured per 10^6 cells at 1 uM after 120 mins by LC-MS/MS analysis; type: ADME, cell-based, Hepatocyte; conditions: 2 h
[11] = Volume of distribution at steady state in Han Wistar rat at 0.76 micromol/kg, iv by LC-MS/MS analysis; type: ADME, organism-based; conditions: in vivo, dose 0.76 µmol/kg, read-out: Vdss
[12] = Clearance in Han Wistar rat at 0.76 micromol/kg, iv by LC-MS/MS analysis; type: ADME, organism-based; conditions: in vivo, dose 0.76 µmol/kg
[13] = Half-life in Han Wistar rat at 0.76 micromol/kg, iv by LC-MS/MS analysis; type: ADME, organism-based; conditions: in vivo, dose 0.76 µmol/kg
[14] = Oral bioavailability in Han Wistar rat at 1.52 micromol/kg by LC-MS/MS analysis; type: ADME, organism-based; conditions: in vivo, 1.52 µmol/kg
[15] = biological target: T4, Relaxin receptor 1 (Rattus norvegicus); experiment: Agonist activity at rat RXFP1 expressed in T-Rex-CHO-K1 cells assessed as stimulation of cAMP production at 40 uM incubated for 45 mins by HTRF assay; type: functional, cell-based
[16] = Metabolic stability in human liver microsomes assessed as intrinsic clearance at 1 uM incubated for 30 mins in presence of NADPH by LC-MS/MS analysis; type: ADME, Microsome; conditions: liver microsomes, read-out: CLH
[17] = Metabolic stability in human liver microsomes assessed as unbound intrinsic clearance at 1 uM incubated for 30 mins in presence of NADPH by LC-MS/MS analysis; type: ADME, Microsome; conditions: 0.5 h
[18] = biological target: T2, Relaxin receptor 1 (Homo sapiens); experiment: as §1; type: functional, cell-based
[19] = biological target: T2, Relaxin receptor 1 (Homo sapiens); experiment: Displacement of [125I]relaxin H2 from human RXFP1 expressed in CHO cells incubated for 90 mins by radioligand binding assay; type: cell-based
[20] = biological target: T2, Relaxin receptor 1 (Homo sapiens); experiment: Agonist activity at human RXFP1 expressed in T-Rex-CHO-K1 cells assessed as stimulation of cAMP production at 50 uM incubated for 45 mins by HTRF assay relative to control; type: functional, cell-based; conditions: filed as agonist

COc1cc(F)c(O[C@H]2CC[C@@H](C(=O)O)CC2)cc1C(=O)N[C@@H]1[C@H]2CC[C@H](C2)[C@@H]1C(=O)Nc1cccc(S(=O)(=O)C(F)(F)F)c1
EC50 (Relaxin receptor 1 [1]): 39.8 nM | Emax [2]: 102% | logD at 3 h [3]: 3.5 | hepatocyte CLint at 1 µM [4]: 15 µL/min/1e6 cells | CL free [5]: 259 µL/min | EC50 (Relaxin receptor 1 [6]): 10000 nM | Emax [7]: 43% | fraction unbound at 18 h, 5 µM [8]: 0.011 | hepatocyte CLint at 1 µM [9]: 23 µL/min/1e6 cells | CL free [10]: 397 µL/min | Vd [11]: 1.7 L/kg | clearance [12]: 76 mL/min/kg | half-life [13]: 72 min | bioavailability [14]: 2.6%

COc1cc(F)c(-c2ccc(C(=O)O)cc2)cc1C(=O)N[C@H]1[C@@H](C(=O)Nc2cccc(S(=O)(=O)C(F)(F)F)c2)[C@@H]2C=C[C@H]1C2 (racemic) [listing 1 of 2 here]
Emax [2]: 92% | Activity [15]: inactive

COc1ccccc1C(=O)Nc1ccccc1C(=O)Nc1cccc(S(=O)(=O)C(F)(F)F)c1
EC50 (Relaxin receptor 1 [1]): 3160 nM | Emax [2]: 153% | logD at 3 h [3]: > 4 | microsomal CLint at 1 µM [16]: 12 µL/min/mg | CL free [17]: 3.7 10^3uL/min/mg | hepatocyte CLint at 1 µM [4]: 6.7 µL/min/1e6 cells | CL free [5]: 0.96 10^3uL/min

COc1ccccc1C(=O)N[C@@H]1CCCC[C@@H]1C(=O)Nc1cccc(S(=O)(=O)C(F)(F)F)c1 (racemic)
Activity [18]: inactive | logD at 3 h [3]: 4.4 | microsomal CLint at 1 µM [16]: 242 µL/min/mg | CL free [17]: 6.3 10^3uL/min/mg

COc1cc(F)c(-c2ccc(C(=O)O)cc2)cc1C(=O)N[C@@H]1[C@H](C(=O)Nc2cccc(S(=O)(=O)C(F)(F)F)c2)[C@H]2C=C[C@@H]1C2
Activity [18]: inactive | logD at 3 h [3]: 3.8 | microsomal CLint at 1 µM [16]: 9.9 µL/min/mg | CL free [17]: 150 µL/min/mg | hepatocyte CLint at 1 µM [4]: 9.2 µL/min/1e6 cells | CL free [5]: 484 µL/min

COc1cc(F)c(-c2ccc(C(=O)O)cc2)cc1C(=O)N[C@H]1[C@@H](C(=O)Nc2cccc(S(=O)(=O)C(F)(F)F)c2)[C@@H]2C=C[C@H]1C2 (racemic) [listing 2 of 2 here]
EC50 (Relaxin receptor 1 [1]): 200 nM | logD at 3 h [3]: 3.4 | microsomal CLint at 1 µM [16]: 6.3 µL/min/mg | CL free [17]: 121 µL/min/mg | fraction unbound at 18 h, 5 µM [8]: 0.0031 | hepatocyte CLint at 1 µM [9]: 16 µL/min/1e6 cells | CL free [10]: 457 µL/min | Vd [11]: 0.92 L/kg | clearance [12]: 73 mL/min/kg | half-life [13]: 22.2 min

COc1cc(F)c(-c2ccc(CC(=O)O)cc2)cc1C(=O)N[C@H]1[C@@H](C(=O)Nc2cccc(S(=O)(=O)C(F)(F)F)c2)[C@@H]2C=C[C@H]1C2 (racemic)
EC50 (Relaxin receptor 1 [1]): 79.4 nM | Emax [2]: 110% | logD at 3 h [3]: 3.2 | microsomal CLint at 1 µM [16]: 4.6 µL/min/mg | CL free [17]: 111 µL/min/mg | hepatocyte CLint at 1 µM [4]: 6.5 µL/min/1e6 cells | CL free [5]: 295 µL/min

COc1cc(F)c(-c2ccc(C(=O)O)cc2)cc1C(=O)N[C@@H]1[C@H]2CC[C@H](C2)[C@@H]1C(=O)Nc1cccc(S(=O)(=O)C(F)(F)F)c1
EC50 (Relaxin receptor 1 [1]): 158 nM | Emax [2]: 103% | logD at 3 h [3]: 3.6 | microsomal CLint at 1 µM [16]: 16 µL/min/mg | CL free [17]: 314 µL/min/mg | hepatocyte CLint at 1 µM [4]: 32 µL/min/1e6 cells | CL free [5]: 1.3 10^3uL/min

COc1cc(F)c(O[C@H]2CC[C@@H](C(=O)O)CC2)cc1C(=O)N[C@H]1[C@@H](C(=O)Nc2ccc(F)c(C(F)(F)F)c2)[C@@H]2C=C[C@H]1C2
EC50 (Relaxin receptor 1 [1]): 15.8 nM | Emax [2]: 124% | logD at 3 h [3]: 3.55 | hepatocyte CLint at 1 µM [4]: 7.7 µL/min/1e6 cells | CL free [5]: 175 µL/min | Activity [19]: inactive

COc1ccccc1C(=O)N[C@H]1[C@@H](C(=O)Nc2cccc(S(=O)(=O)C(F)(F)F)c2)[C@@H]2C=C[C@H]1C2
EC50 (Relaxin receptor 1 [1]): 2510 nM | Emax [2]: 108% | logD at 3 h [3]: 4.4 | microsomal CLint at 1 µM [16]: 44 µL/min/mg | CL free [17]: > 29 10^3uL/min/mg | hepatocyte CLint at 1 µM [4]: 8.9 µL/min/1e6 cells | CL free [5]: 1.8 10^3uL/min

O=C(O)c1ccc(-c2cc(C(=O)N[C@H]3[C@@H](C(=O)Nc4cccc(S(=O)(=O)C(F)(F)F)c4)[C@@H]4C=C[C@H]3C4)ccc2F)cc1 (racemic)
EC50 (Relaxin receptor 1 [1]): > 50100 nM | Activity [20]: 57%

COc1ccccc1C(=O)N[C@H]1CN(C)C[C@H]1C(=O)Nc1cccc(S(=O)(=O)C(F)(F)F)c1 (racemic)
Activity [18]: inactive | logD at 3 h [3]: 3.5 | microsomal CLint at 1 µM [16]: 173 µL/min/mg | CL free [17]: 0.98 10^3uL/min/mg
